# Results taken from patent publication US20210163489A1, “PYRAZOLOPYRIMIDINE DERIVATIVES AND THE COMPOSITIONS AND METHODS OF TREATMENT REGARDING THE SAME” (NysnoBio Ireland DAC, priority 2016, published 2021).
# “And” between values parts separate entries of the source, which are not always exact repeats. Equal values may be shown once.
# Legend:
# [1] = Metabolic stability in rat liver microsomes (RLM); type: in vitro ADME; settings: rat, liver microsomes, pH 7.4, 1 μM compound, 1.0 mg/mL microsome, NADPH; read-out: RLM t1/2
# Procedure: Compounds were also tested for metabolic stability in both rat liver microsomes (RLM) and human liver microsomes (HLM) and their half-life calculated (See Table 6). The assay was performed as follows. The total volume for each incubation was 250 μL. A 100 μM DMSO solution of compound (diluted from 10 mM stock solution) was spiked into 50 mM KH2PO4 (pH 7.4) buffer containing liver microsome at a concentration of 1.0 mg/mL. The reaction was initiated by the addition of 50 μL of 1 mM NADPH. The final concentration of each compound was 1 μM (1% DMSO). The positive controls, phenacetin for CYP1A2, diclofenac for CYP2C9, omeprazole for CYP2C19, dextromethorphan for CYP2D6 and midazolam for CYP3A4 were added to a separate tube with the final substrate concentrations of 1 μM (1% DMSO) for evaluating the enzyme activities in the liver microsomes. At 0, 15, 30 and 60 min, an aliquot of 15 μL reaction mixtures were removed and 200 μL of methanol (with internal standard of 25 ng/mL propranolol) was added to quench the reaction. The resulting mixture was centrifuged and supernatant was used for LC-MS/MS analysis.
# The signals for each compound, or the metabolites for the probe substrates and the internal standard were integrated and the peak area ratios to internal standard were generated. Percent parent remaining at a specified timepoint was calculated based on the peak area ratios at time 0 (as 100%) for in vitro metabolic stability studies in liver microsome and hepatocyte. The observed rate constant (kobs) for the metabolism of substrates was calculated by plotting the natural log of percentage substrate remaining versus time of incubation with the slope being kobs. The half-life (T1/2) was calculated according to the following equation: […]
# Parkin ligase = target: T1, Parkin ligase (Homo sapiens, UniProt O60260); experiment: Activity-based probe assay using an ubiquitin vinyl sulfone probe (TR-FRET); type: biochemical; settings: for EC50: activation of heat activated Parkin, HA-Ub-VS probe, read-out: Probe Assay EC50 (μM) [Example 2]
# T1 construct: Enzyme: Parkin-His tagged 203 μM (10.5 mg/ml)
# T1 sequence (O60260 1-465): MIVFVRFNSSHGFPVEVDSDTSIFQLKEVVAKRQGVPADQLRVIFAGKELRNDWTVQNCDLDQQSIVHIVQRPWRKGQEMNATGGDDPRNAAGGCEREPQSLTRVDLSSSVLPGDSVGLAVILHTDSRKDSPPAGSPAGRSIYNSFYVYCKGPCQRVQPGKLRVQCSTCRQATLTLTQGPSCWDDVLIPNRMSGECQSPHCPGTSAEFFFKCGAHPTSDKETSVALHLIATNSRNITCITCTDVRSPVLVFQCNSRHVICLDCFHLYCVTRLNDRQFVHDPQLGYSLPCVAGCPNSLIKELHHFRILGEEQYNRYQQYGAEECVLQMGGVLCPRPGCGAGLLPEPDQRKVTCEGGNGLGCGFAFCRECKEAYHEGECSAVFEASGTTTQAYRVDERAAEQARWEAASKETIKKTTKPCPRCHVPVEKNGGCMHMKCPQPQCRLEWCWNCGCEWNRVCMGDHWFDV
# Procedure: An Ubiquitin vinyl sulfone probe can be used that irreversibly binds to the active site cysteine of Parkin ligase. Covalent attachment of the probe to the Parkin can be monitored by TR-FRET. Candidate activator compounds can be identified by increasing the activity of Parkin ligase due to an increase in TR-FRET signal. Screening for activating compounds can be distinguished from the controls as follows:
# 100% activation signal=Heat activated Parkin+100 nM control activator in DMSO. 0% activation signal=Heat activated Parkin+DMSO only. Parkin activators can be identified by an increase of the 0% activation signal TR-FRET signal.
# • Assay Plate: White 384 well plate (Corning 3572) • Enzyme: Parkin-His tagged 203 μM (10.5 mg/ml) • Probe: Ubiquitin vinyl-sulfone (HA-Ub-VS Boston Biochem U-212) • DMSO: DMSO (Sigma cat # D4540-100ML) • Reaction Buffer: 50 mM HEPES (pH 8.5), 150 mM NaCl, 0.01% Tween 20, 0.1% BSA • Detection Buffer: 50 mM HEPES (pH 8.5), 150 mM NaCl, 0.01% Tween 20, 0.1% BSA, 800 mM KF • Detection Reagent A: 2.6 nM Anti-6HIS-Eu cryptate and 40 nM Anti-HA-XL665 in detection buffer • Eu cryptate: Anti-6HIS-Eu cryptate (CisBio 61HISKLA) • XL665: Anti-HA-XL665 (CisBio 610HAXLA) Enzyme Reaction (15 min Pre Incubation Parkin with Activator Only) • Parkin: 40 nM • HA-Ub-VS Probe: 70 nM • Activator/DMSO: 2× Activator/2% DMSO • Reaction time: 60 minutes • Temperature: 22° C. • Total volume: 10 μl reaction
# • Take 10 μl of Enzyme Reaction above and add 10 μl detection Reagent A under the following conditions: • Reaction time: 60 minutes • Temperature: 22° C. • Total volume: 20 μl
# Assay procedure (Using HP D-300 compound dispenser and Bravo for the operation):
# 1) Heat activate Parkin in reaction buffer (500 μl/1.5 ml tube: Eppendorf Thermomixer 5 minutes, 400 rpm at 58° C. and put on ice until needed). 2) Load assay plate wells with 4.8 μl 84.5 nM Parkin in reaction buffer by use of Bravo. 3) Deliver 0.2 μl 200× activator candidates in DMSO by use of HP D-300 compound dispenser. Highest 200× concentration=20 μm and then twofold dilutions. 4) Spin 1000 rpm, 2 minutes, at room temp. 5) Incubate plate for 15 minutes at room temp. 6) Add 5 μl 140 nM HA-Ub-VS Probe in reaction buffer by use of Bravo. 7) Spin 1000 rpm, 2 minutes, at room temp. 8) Incubate plate for 60 minutes at room temp. 9) Add 10 μl 2.6 nM Anti-6HIS-Eu cryptate and 40 nM Anti-HA-XL665 in detection buffer. 10) Spin 1000 rpm, 2 minutes, at room temp. 11) Incubate plate for 60 minutes at room temp. 12) Read plates on Perkin Elmer Envision instrument with the following parameters:
# LANCE dual laser protocol loaded into the Envision® software
# Top Mirror: LANCE/DELFIA Duel/Bias (Bar code 446) Emission Filter: APC 665 EM (Bar code 205) 2nd Emission Filter: Europium 615 EM (Bar code 203) Read […] (channel 1) and 615 nm (channel 2) wavelengths on Envision®
# Data Analysis: The Data can be read in CSV files. There are two tables in those CSV files, which are the values of 655 nm (channel 1) and 615 nm (channel 2) wavelengths respectively. The data is converted to an HTRF Ratio=(Channel 1/Channel 2)*10,000
# The average of all the 0 uM controls (DMSO only)=BKGD (Background—0% activation). Subtract BKGD from each HTRF Ratio value=HTRF-BKGD. The average of all the […] 100 nM control activator in DMSO controls=Max (100% activation). The following equation is then used to calculate % Activation for each well/candidate as follows: % Activation=(HTRF−BKGD/Max)*100.
# Graphpad Prisim was used with Transform X values: X=Log(X) and nonlinear regression (dose-response-stimulation): Log(agonist) vs Response—variable slope (four parameters) with constrains set to Bottom=0 and Top=100.
half-life at 1 μM [1] [min],EC50 (Parkin ligase),Parkin Ligase reaction with the Activity-based Ubiquitin vinyl sulfone probe (Parkin ligase),SMILES
8.1,6.8 µM,–,Cc1ccc(-c2cnn3c(S)cc(C)nc23)cc1 [TT]
67,3 µM,–,Cc1cc(S)c2ncc(-c3ccc(F)cc3)n2n1 [Compound F3]
> 500,6 µM,–,Cc1ccc(-c2cnn3c(S)c4c(nc23)CN(C)CC4)cc1 [Compound S3]
29,8.73 µM,–,"Cc1nc2c(-c3ccccc3)cnn2c(O)c1Cc1ccccc1 [Compound U, 6-benzyl-5-methyl-3-phenyl-pyrazolo[1,5-a]pyrimidin-7-ol]"
12.9,8.9 µM,–,COc1ccc(-c2cnn3c(S)cc(C)nc23)cc1 [SS]
112,10.9 µM,–,"Cc1nc2c(-c3ccccc3)c(C)nn2c(S)c1Cc1ccncc1 [Compound AA, 2,5-dimethyl-3-phenyl-6-(4-pyridylmethyl)pyrazolo[1,5-a]pyrimidine-7-thiol]"
63,24 µM,–,Cc1nc2c(-c3cccnc3)c(C)nn2c(S)c1Cc1ccccc1 [Compound D3]
277,27 µM,–,Cc1nn2c(S)c3c(nc2c1-c1ccccc1)CN(C)CC3 [Compound C3]
44,0.5 µM,–,Cc1nn2c(S)c(C)c(Cc3ccccc3)nc2c1-c1ccccc1 [ZZ]
68,18 µM,increases,"Cc1cc(S)n2ncc(-c3ccc(F)cc3)c2n1 [Compound L, 3-(4-fluorophenyl)-5-methylpyrazolo[1,5-a]pyrimidine-7-thiol]"
3,4 µM,–,Cc1nn2c(S)c(CCc3ccccc3)cnc2c1-c1ccccc1 [Compound E3]
84.5,0.4 µM and 3.1 µM and 0.7 µM,increases,"Cc1nc2c(-c3ccccc3)c(C)nn2c(S)c1Cc1ccccc1 [Compound A, 6-benzyl-2,5-dimethyl-3-phenylpyrazolo[1,5-a]pyrimidine-7-thiol]"
55.9,4 µM,–,Cc1cc(C)c2c(n1)nn1c(S)cc(C)nc21 [Compound E]
55.9,5.8 µM,–,"Cc1nc2c(-c3ccccc3)cnn2c(S)c1Cc1ccccc1 [Compound CC, 6-benzyl-5-methyl-3-phenyl-pyrazolo[1,5-a]pyrimidin-7-thiol]"
22,15 µM,–,Cc1nn2c(S)c(CC(C)C)cnc2c1-c1ccccc1 [Compound G3]
4.2,10.7 µM,–,Cc1cc(S)n2ncc(-c3cccc(N(C)C)c3)c2n1 [UU]
